Results: ChEMBL document CHEMBL5154926, “Discovery of a Novel Series of Imipridone Compounds as Homo sapiens Caseinolytic Protease P Agonists with Potent Antitumor Activities In Vitro and In Vivo” (J Med Chem, 2022)
Activity calls are given as the source filed them. The rule behind the calls is not given here.

Experiments:
HCT-116 [1] = test: cells; conditions: Homo sapiens, HCT-116, 48 h
Description: Antiproliferative activity against human HCT-116 cells incubated for 48 hrs by CCK-8 assay

[2] = molecular target: T1, ATP-dependent Clp protease proteolytic subunit, mitochondrial (Homo sapiens, UniProt Q16740); test: Agonist activity at human CLpP (57 to 277 amino acids) expressed in Escherichia coli using fluorogenic peptide AC-WLA-AMC as substrate incubated for 10 mins by fluorescence based assay
HCT-15 = test: cells; conditions: Homo sapiens, HCT-15, 48 h
Description: Antiproliferative activity against human HCT-15 cells incubated for 48 hrs by CCK-8 assay

DLD-1 = test: cells; conditions: Homo sapiens, DLD-1, 48 h
Description: Antiproliferative activity against human DLD-1 cells incubated for 48 hrs by CCK-8 assay

SW-620 = test: cells; conditions: Homo sapiens, SW-620, 48 h
Description: Antiproliferative activity against human SW-620 cells incubated for 48 hrs by CCK-8 assay

HT-29 = test: cells; conditions: Homo sapiens, HT-29, 48 h
Description: Antiproliferative activity against human HT-29 cells incubated for 48 hrs by CCK-8 assay

SW480 = test: cells; conditions: Homo sapiens, SW480, 48 h
Description: Antiproliferative activity against human SW480 cells incubated for 48 hrs by CCK-8 assay

[3] = molecular target: T1, ATP-dependent Clp protease proteolytic subunit, mitochondrial; conditions: filed as agonist, dose 100.0 µM, time 30.0 min
[4] = molecular target: T1, ATP-dependent Clp protease proteolytic subunit, mitochondrial; conditions: filed as agonist
Description: Binding affinity to human CLpP assessed as change in entropy by ITC method

Homo sapiens [5] = species on record: Homo sapiens; conditions: filed as agonist
Description: Binding affinity to human CLpP Y138F/Q107A double mutant assessed as change in enthalpy by ITC method

HCT-116 [6] = conditions: Homo sapiens, dose 12.5-50 nM, time 14.0 day
Homo sapiens [7] = species on record: Homo sapiens; conditions: filed as agonist; remark: listed apart in the source
Description: Binding affinity to human CLpP Y138F/Q107A double mutant assessed as change in entropy by ITC method

[8] = molecular target: T1, ATP-dependent Clp protease proteolytic subunit, mitochondrial; conditions: filed as agonist; remark: listed apart in the source
Description: Binding affinity to human CLpP assessed as change in enthalpy by ITC method

[9] = Cmax in Sprague-Dawley rat plasma at 15 mg/kg, po after 0.25 to 24 hrs by LC-MS analysis; assay type: ADME, organism-based; design: time lower 0.25 hrs, dose 15 mg/kg, time upper 24 hrs, route po
[10] = Terminal half life in Sprague-Dawley rat plasma at 15 mg/kg, po after 0.25 to 24 hrs by LC-MS analysis; assay type: ADME, organism-based; conditions: time 0.25-24 hrs, read-out: beta t1/2 (converted)
[11] = Clearance in Sprague-Dawley rat plasma at 5 mg/kg, iv after 0.083 to 24 hrs by LC-MS analysis; assay type: ADME, organism-based; conditions: time 0.083-24 hrs
[12] = MRT (0 to 24 hrs) in Sprague-Dawley rat plasma at 5 mg/kg, iv after 0.083 to 24 hrs by LC-MS analysis; assay type: ADME, organism-based; conditions: time 0.083-24 hrs
in vivo [13] = conditions: Sprague-Dawley, rat, in vivo, po, 15 mg/kg
[14] = Tmax in Sprague-Dawley rat plasma at 15 mg/kg, po after 0.25 to 24 hrs by LC-MS analysis; assay type: ADME, organism-based; conditions: time 0.25-24 hrs
[15] = Cmax in Sprague-Dawley rat plasma at 5 mg/kg, iv after 0.083 to 24 hrs by LC-MS analysis; assay type: ADME, organism-based; design: dose 5 mg/kg, time 0.083-24 hrs, route iv
[16] = Terminal half life in Sprague-Dawley rat plasma at 5 mg/kg, iv after 0.083 to 24 hrs by LC-MS analysis; assay type: ADME, organism-based; conditions: time 0.083-24 hrs, read-out: beta t1/2 (converted)
[17] = MRT (0 to 24 hrs) in Sprague-Dawley rat plasma at 15 mg/kg, po after 0.25 to 24 hrs by LC-MS analysis; assay type: ADME, organism-based; conditions: time 0.25-24 hrs
in vivo [18] = conditions: Sprague-Dawley, rat, in vivo, iv, 5 mg/kg
[19] = Oral bioavailability in Sprague-Dawley rat plasma at 15 mg/kg after 0.25 to 24 hrs by LC-MS analysis; assay type: ADME, organism-based; conditions: time 0.25-24 hrs
[20] = Stability in rat liver microsomes assessed as half life at 1.5 uM measured upto 90 mins in presence of NADPH by LC/MS analysis; assay type: ADME, Microsome; conditions: 1.5 h
[21] = Stability in human liver microsomes assessed as intrinsic clearance at 1.5 uM measured upto 90 mins in presence of NADPH by LC/MS analysis; assay type: ADME, Microsome; conditions: read-out: CLH
[22] = Stability in human liver microsomes assessed as half life at 1.5 uM measured upto 90 mins in presence of NADPH by LC/MS analysis; assay type: ADME, Microsome; conditions: microsomes, 1.5 h, 1.5 µM

T1 sequence (Q16740 whole entry, the tested form may be a part): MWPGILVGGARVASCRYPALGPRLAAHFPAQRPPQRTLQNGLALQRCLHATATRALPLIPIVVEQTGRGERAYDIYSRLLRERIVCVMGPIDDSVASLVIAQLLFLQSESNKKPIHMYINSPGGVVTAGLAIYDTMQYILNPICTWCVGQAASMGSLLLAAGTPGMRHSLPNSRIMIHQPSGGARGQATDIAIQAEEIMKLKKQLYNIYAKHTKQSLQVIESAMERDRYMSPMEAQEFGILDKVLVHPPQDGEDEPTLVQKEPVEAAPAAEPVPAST

SMILES	IC50 (HCT-116 [1]) [µM]	EC50 [2] [µM]	further results
Cc1cccc(CN2CCn3c2nc(=O)c2c3CCN(Cc3ccccc3)C2)c1	0.3	0.39	–
O=c1nc2n(c3c1CN(Cc1ccccc1)CC3)CCN2c1ccccc1	> 10	1.04	–
O=c1nc2n(c3c1CN(Cc1ccccc1)CC3)CCN2Cc1ccncc1	> 10	1.13	–
O=c1nc2n(c3c1CN(Cc1ccccc1)CC3)CCN2Cc1cccnc1	> 10	1.04	–
Cc1ccccc1CN1CCn2c1nc(=O)c1c2CCN(CC2CCCCC2)C1	> 10	2.41	–
Cc1ccccc1CN1CCn2c1nc(=O)c1c2CCN(CCCCc2ccccc2)C1	> 10	> 10	–
Cc1ccccc1CN1CCn2c1nc(=O)c1c2CCN(CC2CC2)C1	> 10	> 10	–
O=c1nc2n(c3c1CN(Cc1ccccc1)CC3)CCN2Cc1cccc(Cl)c1	0.19	0.28	–
CCN1CCc2c(c(=O)nc3n2CCN3Cc2ccccc2C)C1	> 10	> 10	–
CC(C)CCN1CCn2c1nc(=O)c1c2CCN(Cc2ccccc2)C1	4.2	0.45	–
Cc1ccccc1CN1CCn2c1nc(=O)c1c2CCN(Cc2ccncc2)C1	> 10	1.61	–
Cc1cccc(CN2CCc3c(c(=O)nc4n3CCN4Cc3ccccc3C)C2)c1	1.5	0.51	–
Cc1ccccc1CN1CCn2c1nc(=O)c1c2CCN(c2nncs2)C1	> 10	> 10	–
COc1ccccc1CN1CCn2c1nc(=O)c1c2CCN(Cc2ccccc2)C1	1.34	0.11	–
Cc1ccccc1CN1CCn2c1nc(=O)c1c2CCN(Cc2cccnc2)C1	> 10	1.64	–
O=c1nc2n(c3c1CN(Cc1ccccc1)CC3)CCN2Cc1cccc(Br)c1	0.61	0.36	–
O=c1nc2n(c3c1CN(Cc1ccccc1)CC3)CCN2Cc1ccc(F)c(Br)c1	–	–	ΔTm [3]: 20.9 °C; deltaS [4]: -77.4 J/mol.K; deltaH (Homo sapiens [5]): -11.4 kJ/mol; inhibition (HCT-116 [6]): Active; deltaS (Homo sapiens [7]): 54.3 J/mol.K; deltaH [8]: -62.5 kJ/mol
CCN1CCn2c1nc(=O)c1c2CCN(Cc2ccccc2)C1	> 10	> 10	–
Cc1ccccc1CN1C(=O)C2=C(CCN(Cc3ccccc3)C2)N2CCN=C12.Cl.Cl.O	–	–	Cmax [9]: 0.566 µg/mL; half-life [10]: 63 min; clearance [11]: 2.56 L/h/kg; MRT last [12]: 51.6 min; AUC(0-t) (in vivo [13]): 0.894 µg·h/mL; Tmax [14]: 25.2 min; Cmax [15]: 2.77 µg/mL; half-life [16]: 54.6 min; MRT last [17]: 87.6 min; AUC(0-t) (in vivo [18]): 1.96 µg·h/mL; bioavailability [19]: 15.2%
O=C(c1ccc(F)cc1)C1CCN(CCn2c(=O)[nH]c3ccccc3c2=O)CC1 [KETANSERIN]	–	–	t1/2 [20]: 18.5 min; CLint scaled at 1.5 µM [21]: 3.07 L/h/kg; t1/2 [22]: 34 min

Second part, led by results:

IC50 (HCT-116 [1]) [µM]	EC50 [2] [µM]	SMILES	further results
5.31	0.64	Cc1ccc(CN2CCc3c(c(=O)nc4n3CCN4Cc3ccccc3C)C2)cc1	–
0.55	0.4	O=c1nc2n(c3c1CN(Cc1ccccc1)CC3)CCN2Cc1ccc(Br)cc1	–
0.08	0.13	O=c1nc2n(c3c1CN(Cc1ccccc1)CC3)CCN2Cc1ccc(F)cc1	IC50 (HCT-15): 0.21 µM; IC50 (DLD-1): 0.09 µM; IC50 (SW-620): 0.19 µM; IC50 (HT-29): 0.4 µM; IC50 (SW480): 0.17 µM
0.31	0.19	O=c1nc2n(c3c1CN(Cc1ccccc1)CC3)CCN2Cc1ccccc1Cl	–
0.1	0.16	O=c1nc2n(c3c1CN(Cc1ccccc1)CC3)CCN2Cc1ccc(F)cc1F	IC50 (HCT-15): 0.12 µM; IC50 (DLD-1): 0.09 µM; IC50 (SW-620): 0.09 µM; IC50 (HT-29): 0.08 µM; IC50 (SW480): 0.12 µM
0.22	0.26	O=c1nc2n(c3c1CN(Cc1ccccc1)CC3)CCN2Cc1cccc(F)c1	–
0.11	0.21	O=c1nc2n(c3c1CN(Cc1ccccc1)CC3)CCN2Cc1ccc(Br)c(F)c1	–
